Results published in patent publication US8501813B2, “γ-secretase inhibitor” (Kabushiki Kaisha Yakult Honsha, priority 2007, dated 2013).

Legend:
γ-secretase [1] = molecular target: T1, γ-secretase (Homo sapiens, UniProt P49768); assay: Substrate specificity: β-Alcα secretion by HEK293 cells transfected with FLAG Alcα C150, anti-FLAG immunoprecipitation/western blot; type: cell-based; details: 0.2 μmol/L
Description: (§1) Of families constituting human Alcadein (hereinafter, referred to as Alc) known as a substrate for γ-secretase to colocalize with APP in brain neurons, an artificial Alcα fragment (hereinafter, referred to as Alcα C150) whose first extracellular cleavage site and γ-secretase cleavage site were determined was used to study the substrate specificity of the γ-secretase inhibitor of the present invention. β-Alcα produced from a first cleavage construct of Alcα cannot be quantified by sELISA used in Aβ measurement. Therefore, proteins with an attached FLAG tag at the N termini of first cleavage constructs of Alcα and of C99 were expressed by cells. FLAG-Aβ-like peptides secreted into a medium were collected by immunoprecipitation using anti-FLAG antibodies and detected by western blotting using the antibodies. A specific method thereof is shown below.
(§2) HEK293 cells (ATCC) (1×10^7 cells/10 cm dish) cultured in 6 ml of 10% FCS-containing DMEM (Wako Pure Chemical Industries, Ltd.) were transfected with FLAG APP C99 pcDNA3.1 (the nucleotide sequence of its coding region is shown in SEQ ID NO: 2) (J. Biol. Chem., 2003, 278, 49448-49458 (which was prepared from pcDNA3-APPC99)) or with FLAG Alcα C150 pcDNA3.1 (the nucleotide sequence of its coding region is shown in SEQ ID NO: 3) (J. Biol. Chem., 2004, 279, 24343-24354 (which was the same as pcDNA3AlcαΔE)) using Lipofectamine 2000 (Invitrogen Corp.) according to the protocol included in the reagent. Each inhibitor and a positive control (γ-Secretase Inhibitor IX (DAPT)) (Calbiochem Contact Information) were separately added at a concentration of 0.2 or 2 μmol/L. The same dose of DMSO (Wako Pure Chemical Industries, Ltd.) thereas was added as a negative control. 24 hours later, the culture supernatants were collected, and samples were preliminarily purified using beads (100 μL of 50% (v/v) Protein-G Sepharose (GE Healthcare)). Then, 15 μL of 50% (v/v) anti-FLAG antibody M2 beads (Sigma-Aldrich Corp.) were added thereto, and the samples were incubated at 4° C. for 1 hour. The beads were collected by centrifugation and washed three times with a buffer (10 mM Tris-HCl [pH 8.0], 140 mM NaCl, 0.1% n-octyl glucoside, 0.025% sodium azide), and Aβ and β-Alcα in the medium were collected. The proteins were subjected to SDS-PAGE using a 15% Tris-Tricine gel (Anal Biochem., 1987, 166 (2), 368-379) and then transferred to a membrane. The membrane was boiled for 5 minutes in PBS. Then, anti-FLAG M2 antibodies (5 μg/ml) (Sigma-Aldrich Corp.) were added thereto, and the membrane was incubated, followed by detection using a western blotting detection reagent ECL (GE Healthcare). This signal was quantified using Versa-doc system (Bio-Rad Laboratories, Inc.) to calculate protein secretion rates (the protein secretion rate of the negative control is defined as 100%).

γ-secretase [2] = molecular target: T1, γ-secretase; assay: Substrate specificity: FLAG-Aβ secretion by HEK293 cells transfected with FLAG APP C99, anti-FLAG immunoprecipitation/western blot; type: cell-based; details: 0.2 μmol/L
Description: as §1, §2

CSCC[C@H](NC(=O)[C@@H](NC(=O)[C@H](CC(C)C)C[C@@H](O)[C@@H](NC(=O)OC(C)(C)C)[C@@H](C)O)c1ccccc1)C(=O)NCc1ccccc1 [TLVM-11, [5S-(tert-butoxycarbonylamino)-4R,6R-dihydroxy-2R-(2-methylpropyl)heptanoyl]-L-phenylglycyl-L-methionine benzylamide]
γ cleavage of the Alcα-C150, in words (γ-secretase [1]): did not inhibit
(ii) β-Alcα secretion rate of HEK293 cells (γ-secretase [1]; 24 h, FLAG Alcα C150, negative control = 100%): 68%
(i)/(ii) ratio, Aβ / β-Alcα secretion rates (γ-secretase [2]): 0.12
cleavage of APP-C99, in words (γ-secretase [2]): specifically inhibited
(i) Aβ secretion rate of HEK293 cells (γ-secretase [2]; 24 h, FLAG APP C99, negative control = 100%): 8%
